The source of these data is patent publication US20070270455A1, “INHIBITION OF NF-kB” (priority 2005, published 2007).

In one series the test system is IκB. Nature of the series: Western blot of IκB level and phosphorylation. In kind it is cell-based. As to conditions: PC-3 cells, 10 μM; MCF7 cells. The method, then: (§1) Western blot analysis of total protein lysates was performed using antibodies against p53 (DO1) and against specific sites of phosphorylation in p53. […] HCT116 cells were treated for 30 minutes with 1 μM PS-341. PS-341 was washed off after 30 minutes and cells were re-incubated in drug free medium prior to analysis at 3 hours or 16 hours post-treatment. […] Proteasome activity was determined by measuring the absorbance of free AMC generated by cleavage of an AMC-fluorogenic peptide. The proteasome activity of untreated cells was set at 100%. […] Cell lysates were isolated at the indicated hours after treatment and used for western blotting. […]
(§2) Cells were lysed in RIPA buffer (25 mM Tris HCl, pH7.2, 125 mM NaCl, 1% NP40, 1% sodium deoxycholate, 1 mM EDTA) containing 1 mM PMSF (Sigma), 10 μg/ml of aprotinin (Sigma) and 10 μg/ml of leupeptin (Sigma). Protein concentrations were determined with BioRad Dc protein assay kit. […] The following antibodies were used: anti-p53—monoclonal mouse DO1 (Santa-Cruz), anti-p21—monoclonal mouse F-5 (Santa-Cruz), anti-mdm2—monoclonal mouse SMP14 (Santa-Cruz). p53 phosphorylation status was analyzed using phospho-p53 sampler kit from Cell signaling according to manufacturer's recommendations, anti-p65—(C20, Santa Cruz), anti-phospho-p65—(ser536, Cell Signaling), anti-IκBa—(C21, Santa Cruz), anti-p50—(NLS, Santa Cruz). […]
On the technique in general: A western blot detects proteins with antibodies after separation by electrophoresis.

Another series deals with H1299-NF-kBLuc cells. Nature of the series: NF-κB-responsive luciferase reporter assay. In kind it is cell-based. For orientation: In a reporter assay the amount or activity of a reporter protein is the signal.
A further series relates to p53 null H1299 cells. Nature of the series: p53-responsive reporter assay in p53 null cells. In kind it is cell-based. An excerpt: (§3) Bars represent folds of p53 responsive reporter induction over untreated controls. Box represents western blot analysis of p53 expression in total protein lysates of both cells variants in basal and doxorubicin treated conditions (to evaluate basal and DNA-damage induced level of p53). […] Fold induction presented as fold of reporter activation over untreated control. […] Fold induction presented as fold of reporter activation over untreated control.
(§4) For cotransfection set-up, 2×10^5 cells were plated into 6 well plates and, after overnight incubation, transfected with Lipofectamin Plus reagent (Gibco BRL) with 0.5 μg of reporter plasmids (p21-ConALuc or pNF-κBLuc) in combination with different concentrations of p53, Arf, Ss-IκB, or siHDM2 expressing plasmids. Corresponding empty vectors were added into all transfections up to 2 μg of total DNA amount. […] Luciferase activity and β-galactosidase activity was measured in lysates prepared 48 hours after transfection with Cell Lysis Buffer (Promega) by luciferase assay system (Promega) or β-galactosidase enzyme system (Promega). Luminometric and colorimetric reactions were read on the Wallack 1420 plate reader (Perkin Elmer). […] Luciferase or β-galactosidase activity and protein concentration were measured in aliquots of cell lysates using standard kits (Promega, Luciferase and β-galactosidase assay systems, Biorad Protein Assay Kit).

For another series, the system named is RCC45ConALacZ cells. Nature of the series: p53-responsive reporter (ConALacZ) β-galactosidase assay in RCC45 cells. Type of series: cell-based. To be noted: compared with doxorubicin. The method, then:
2×10^4 of RCC45ConALacZ cells were plated into wells of 96 well plates in 200 μL of phenol-red free RPMI medium with standard additives. After overnight incubation library of chemical compounds in DMSO solution together with controls was added with the help of plastic bacterial replicators (200+/−100 nL). Final concentration of compounds was around 5 μg/ml. Negative control was DMSO, positive control was doxorubicin solution (0.2, 0.6 and 2 μM). After 24 hours lysis buffer with ONPG was added directly to the medium on ice. After 3 hours of incubation at 37° C., β-galactosidase activity was estimated by reading absorbance values Wallack 1420 plate reader (Perkin Elmer) at λ=430 nm.
For cotransfection set-up, 2×10^5 cells were plated into 6 well plates and, after overnight incubation, transfected with Lipofectamin Plus reagent (Gibco BRL) with 0.5 μg of reporter plasmids (p21-ConALuc or pNF-κBLuc) in combination with different concentrations of p53, Arf, Ss-IκB, or siHDM2 expressing plasmids. […] Luciferase activity and β-galactosidase activity was measured in lysates prepared 48 hours after transfection with Cell Lysis Buffer (Promega) by luciferase assay system (Promega) or β-galactosidase enzyme system (Promega). Luminometric and colorimetric reactions were read on the Wallack 1420 plate reader (Perkin Elmer). […]

In series [1] the test system is normal kidney epithelial cells and human diploid fibroblasts WI38. Nature of the series: Cell survival assay in normal cells. In kind it is cell-based. On the procedure:
The same experiment as described in FIG. 4A was performed with NKE, RCC45, RCC54 and ACHN cells.
5×10^3 of cells were plated in 6 well plates and treated with different concentrations of drugs for 24 hours. Then fresh drug-free medium was added. Number of colonies was estimated after 5-6 days of incubation. Cell survival was estimated as a percentage of intensity of methylene blue staining of treated cells, comparing with untreated control (methylene blue from stained colonies was extracted by 0.1% of SDS and quantitated spectrophotometrically).

The next series has as its system p53. Nature of the series: Western blot of p53 phosphorylation status in RCC45 cells. In kind it is cell-based. As to conditions: 9AA 5 μM or dox 1 μM, 16 hours. On the procedure:
as §1, §2

The subject of the next series is HT1080ConALuc cells. The experiment in a line: p53-responsive luciferase reporter assay in HT1080 cells. In kind it is cell-based, human.
Description: as §3
For cotransfection set-up, 2×10^5 cells were plated into 6 well plates and, after overnight incubation, transfected with Lipofectamin Plus reagent (Gibco BRL) with 0.5 μg of reporter plasmids (p21-ConALuc or pNF-κBLuc) in combination with different concentrations of p53, Arf, Ss-IκB, or siHDM2 expressing plasmids. Corresponding empty vectors were added into all transfections up to 2 μg of total DNA amount. Normalization of transfection efficiency was done by adding 0.2 μg of pCMV-LacZ plasmid. Luciferase activity and β-galactosidase activity was measured in lysates prepared 48 hours after transfection with Cell Lysis Buffer (Promega) by luciferase assay system (Promega) or β-galactosidase enzyme system (Promega). Luminometric and colorimetric reactions were read on the Wallack 1420 plate reader (Perkin Elmer). Integrated reporter set-up. 2×10^4 of cells with integrated reporter were plated in 96 well plates. After overnights incubation chemical compounds or media from lentivirus producing cells were added. At different time points cell lysates were prepared using Reporter Lysis Buffer (Promega). Luciferase or β-galactosidase activity and protein concentration were measured in aliquots of cell lysates using standard kits (Promega, Luciferase and β-galactosidase assay systems, Biorad Protein Assay Kit).

The subject of another series is MCF7ConALacZ cells. The experiment in a line: p53-responsive reporter assay in MCF7 cells. In kind it is cell-based. To be noted: compared with doxorubicin.
Description: as §3, §4

Series [2] relates to HT1080 sip53 or HT1080 siGFP cells. Nature of the series: Cell cycle analysis. In kind it is cell-based, human.
The test system of the next series is RCC54. The experiment in a line: Global gene expression profile by microarray hybridization, RCC54. In kind it is cell-based. To be noted: 36847 genes; at least in one dose (2 μM, 10 μM) in both cell lines RCC45 and RCC54; 16 hours. On the procedure:
RNA was isolated after 16 hours of treatment that was enough to induce p53 but before appearance of signs of cell death. Among the 36847 genes represented on the array, only 0.6% changed their mRNA abundance by at least a factor of 2 at least in one dose in both cell lines.

[3] abbreviates: after treatment with the drug, FIG. 3f.

Structures are written as SMILES. Where only a bound is given, the exact number is not on record here.

As for `Nc1c2ccccc2nc2ccccc12` [9AA, 9-aminoacridine], in the series with IκB, the “level of IκB” value is listed as “gradual decrease followed by complete disappearance of IκB”. Also, the “TSA-stimulated NF-κB-dependent transcription” value with H1299-NF-kBLuc cells (100 nM TSA) is “could not be blocked”. For the same compound, in the series on H1299-NF-kBLuc cells (basal and TNF-induced (10 ng/ml)), the NF-κB-responsive reporter activity entry was “inhibited basal and TNF-induced activity of the reporter”. In the series on p53 null H1299 cells, the “stimulation of p53 reporter activity” value was “no stimulation of reporter activity”. Further, the “p53 reactivation / reporter induction (in words)” value in the series on RCC45ConALacZ cells was “much stronger than doxorubicin”. For the same compound, the “sensitivity of normal cells compared with RCC and other tumor cells” value in series [1] is on record as “more resistant to 9AA”. Further, in the series on p53, the p53 phosphorylation status result is “did not affect”. For the same compound, the “concentration at which p53 was activated” value with HT1080ConALuc cells (HT1080ConALuc cells, 24 hours) was no less than 1 µM. Further, in the series with HT1080ConALuc cells (setting [3]), the “time at which p53-dependent transactivation becomes detectable” value came to 12 h and the “time at which p53-dependent transactivation reaches maximum” value was “around 36 hours”. The “induction of p53 reporter and p53-responsive genes (in words)” value in the series with MCF7ConALacZ cells is recorded as “weaker than that of doxorubicin”. The “effect on cell cycle” value in series [2] (3 μM) is “p53-dependent growth arrest”. In addition, in [2] (20 μM), the “effect on cell cycle” value is on record as “apoptosis”. The “genes that changed mRNA abundance by at least a factor of 2” value in the series with RCC54 is on record as 0.6%.
